Results published in patent US20250161476A1 (REGENERON PHARMACEUTICALS, INC., priority 2020, published 2025).

Columns and labels:
[1] = human, 4 h, 2 µM
Protocol: An assay was performed to determine the plasma protein binding of compounds of the disclosure. For the assay, on the day of experiment, the plasma was thawed in cold water and centrifuged at 3220 rpm for 5 minutes to remove any clots. The pH value of the resulting plasma was checked
For the dialysis, the test compound and control compound were dissolved in DMSO to achieve 10 mM stock solutions. DMSO working solutions were prepared at 400 μM. To prepare the loading matrix, compound working solutions (5 μL) were added in a 1:200 ratio to blank matrix (995 μL) and mixed thoroughly. To prepare the time zero (TO) samples to be used for recovery determination, 50 μL aliquots of loading matrix were transferred in triplicate to the sample collection plate. The samples were immediately matched with opposite blank buffer to obtain a final volume of 100 μL of 1:1 matrix/dialysis buffer (v/v) in each well. 500 μL of stop solution were added to these TO samples. This was then stored at 2-8° C. pending further processes along with other post-dialysis samples. To load the dialysis device, an aliquot of 150 μL of the loading matrix was transferred to the donor side of each dialysis well in triplicate, and 150 μL of the dialysis buffer was loaded to the receiver side of the well. […]
The percent unbound, percent bound, and percent recovery values were calculated using the following equations: […]

[2] = biological target: human glucagon receptor (GCGR) (Homo sapiens (Human), UniProt P47871); assay: CRE-luciferase reporter bioassay, HEK293/Myc-hGCGR/Cre-Luc cell line; assay type: cell-based
Protocol: (§2) Cells were incubated overnight at 37° C. in 5% CO2. […] Plates were incubated for 5.5 h at 37° C. in 5% CO2. For end-point measurement, 100 μL/well of One-Glo reagent (Promega, #E6051) was added and plates were kept at room temperature for 5-10 minutes. Luciferase activity was measured on Envision Multilabel Plate Reader (Perkin Elmer) in Luminescent mode. The relative light units (RLU) values were obtained and the results were analyzed using nonlinear regression with GraphPad Prism software (GraphPad).

human GLP1R = human GLP1R (Homo sapiens (Human), UniProt P43220); assay: cAMP responsive luciferase reporter assay, HEK293/CRE-Luc/hGLP1R cells; assay type: cell-based
human GLP1R, sequence (P43220 24-463): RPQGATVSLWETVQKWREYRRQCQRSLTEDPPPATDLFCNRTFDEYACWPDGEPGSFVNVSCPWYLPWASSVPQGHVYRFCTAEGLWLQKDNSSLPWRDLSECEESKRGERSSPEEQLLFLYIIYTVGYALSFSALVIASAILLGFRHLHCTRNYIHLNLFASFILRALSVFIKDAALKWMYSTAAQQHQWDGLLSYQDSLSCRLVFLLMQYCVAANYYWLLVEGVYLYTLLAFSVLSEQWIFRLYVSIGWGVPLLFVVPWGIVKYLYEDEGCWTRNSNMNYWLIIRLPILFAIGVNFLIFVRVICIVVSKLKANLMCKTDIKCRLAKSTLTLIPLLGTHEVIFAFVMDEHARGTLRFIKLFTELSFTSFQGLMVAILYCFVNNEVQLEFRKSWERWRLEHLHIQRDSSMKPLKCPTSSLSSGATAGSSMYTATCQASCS
Excerpt: To test the activity of GLP1R agonist payloads, GLP1R agonist linker-payloads (LPs), and anti-GLP1R antibody tethered drug conjugates (ATDCs) of the disclosure, a cell-based cAMP responsive luciferase reporter assay was developed. To generate the assay cell line, the firefly luciferase gene was placed under the control of a cAMP response element (CRE) located upstream of a minimal promoter and transfected into HEK293 cells and referred to herein as HEK293/CRE-Luc cells.
Three-fold serial dilutions of free payloads or LPs were prepared in 100% DMSO, transferred to fresh assay media, and added to the cells at a final constant DMSO concentration of 0.2%. The last well in the plate served as a blank control containing only the assay media and 0.2% DMSO (untreated well) and was plotted as a continuation of the 3-fold serial dilution. Four to six hours later, luciferase activity was determined after the addition of One-Glo™ reagent (Promega, Cat #E6130) to each well. Relative light units (RLUs) were measured on an Envision luminometer (PerkinElmer) and EC50 values were determined using a four-parameter logistic equation over a 12-point dose response curve (GraphPad Prism). The signal to noise (S/N) was determined by taking the ratio of the highest RLU on the dose response curve to the RLU in the untreated wells.
GLP1R agonist linker payloads were conjugated to anti-hGLP1R antibodies via N-terminal heavy or light chain Q tags. Several resulting anti-GLP1R antibody tethered drug conjugates (ATDCs) were tested for activity in the HEK293/CRE-Luc/hGLP1R reporter assay as described above for the free GLP1R payload and linker-payload agonists.

[3] = Plasma stability of payloads and linker-payloads, mouse plasma; assay type: in vitro ADME; conditions: assay time 3 days
Protocol: (§1) The plasma stability of payloads and linker payloads of the disclosure were measured. For the assay, pooled frozen plasma (human, mouse or monkey) was thawed in cold water or a 37° C. water bath prior to experiment. Plasma was centrifuged at 4000 rpm for 5 min if any clots were observed, they were subsequently removed. If required, the pH was adjusted to 7.4±0.1. For the preparation of compounds and positive controls, a 1 mM intermediate solution was prepared by diluting 10 μL of their stock solution with 90 μL DMSO; a 1 mM intermediate solution of the positive control (Propantheline) was prepared by diluting 10 μL of its stock solution with 90 μL ultrapure water. Subsequently, 100 μM dosing solution for each compound was prepared by diluting 20 μL of the intermediate solution (1 mM) with 180 μL 45% MeOH/H2O. 98 μL of plasma was spiked with 2 μL of dosing solution (100 μM) to achieve the final concentration of 2 μM in duplicate. Samples were then incubated at 37° C. in a water bath. […] At each time point, 400 μL of stop solution (200 ng/mL tolbutamide plus 200 ng/mL labetalol in 50% ACN/MeOH) was added to precipitate protein and mixed thoroughly. Sample plates were then centrifuged at 4,000 rpm for 10 min. An aliquot of supernatant (50 μL) was transferred from each well and mixed with 100 μL ultra-pure water. […]

[4] = Liver microsome stability (intrinsic clearance); assay type: in vitro ADME; conditions: microsomes
Protocol: To assess the in vitro ADME properties of the LP, microsomal stability assay was performed to determine intrinsic clearance, and plasma protein binding assay was performed to understand the distribution potential.

HEK293/CRE-Luc cells = assay: cAMP responsive luciferase reporter assay, HEK293/CRE-Luc cells (no hGLP1R expression); assay type: cell-based, human
Method in brief: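 Counter-screen in HEK293 cells carrying CRE-driven firefly luciferase without hGLP1R; 3-fold serial dilutions of payloads or linker-payloads at 0.2% final DMSO, 4–6 h.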

[5] = Plasma stability of payloads and linker-payloads, monkey plasma; assay type: in vitro ADME; conditions: assay time 3 days
Protocol: as §1

[6] = biological target: human gastric inhibitory polypeptide receptor (GIPR) (Homo sapiens (Human), UniProt P48546); assay: CRE-luciferase reporter bioassay, HEK293/Myc-hGIPR/Cre-Luc cell line; assay type: cell-based
human gastric inhibitory polypeptide receptor (GIPR), sequence (P48546 22-466): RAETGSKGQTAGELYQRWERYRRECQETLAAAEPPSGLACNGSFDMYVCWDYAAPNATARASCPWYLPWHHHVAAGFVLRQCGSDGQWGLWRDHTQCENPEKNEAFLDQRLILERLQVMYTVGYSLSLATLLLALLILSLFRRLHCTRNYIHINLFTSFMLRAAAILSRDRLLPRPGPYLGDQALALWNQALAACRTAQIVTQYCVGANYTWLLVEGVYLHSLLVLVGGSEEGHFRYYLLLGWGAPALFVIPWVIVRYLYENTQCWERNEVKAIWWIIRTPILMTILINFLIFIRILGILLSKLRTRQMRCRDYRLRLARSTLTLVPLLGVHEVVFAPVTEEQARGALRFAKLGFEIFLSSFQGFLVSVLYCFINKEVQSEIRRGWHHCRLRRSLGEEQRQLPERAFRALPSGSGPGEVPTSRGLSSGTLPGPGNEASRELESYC
Protocol: as §2

[7] = biological target: human glucagon-like peptide 2 receptor (GLP2R) (Homo sapiens (Human), UniProt O95838); assay: CRE-luciferase reporter bioassay, HEK293/Myc-hGLP2R/Cre-Luc cell line; assay type: cell-based; conditions: GLP2R
human glucagon-like peptide 2 receptor (GLP2R), sequence (O95838 whole entry): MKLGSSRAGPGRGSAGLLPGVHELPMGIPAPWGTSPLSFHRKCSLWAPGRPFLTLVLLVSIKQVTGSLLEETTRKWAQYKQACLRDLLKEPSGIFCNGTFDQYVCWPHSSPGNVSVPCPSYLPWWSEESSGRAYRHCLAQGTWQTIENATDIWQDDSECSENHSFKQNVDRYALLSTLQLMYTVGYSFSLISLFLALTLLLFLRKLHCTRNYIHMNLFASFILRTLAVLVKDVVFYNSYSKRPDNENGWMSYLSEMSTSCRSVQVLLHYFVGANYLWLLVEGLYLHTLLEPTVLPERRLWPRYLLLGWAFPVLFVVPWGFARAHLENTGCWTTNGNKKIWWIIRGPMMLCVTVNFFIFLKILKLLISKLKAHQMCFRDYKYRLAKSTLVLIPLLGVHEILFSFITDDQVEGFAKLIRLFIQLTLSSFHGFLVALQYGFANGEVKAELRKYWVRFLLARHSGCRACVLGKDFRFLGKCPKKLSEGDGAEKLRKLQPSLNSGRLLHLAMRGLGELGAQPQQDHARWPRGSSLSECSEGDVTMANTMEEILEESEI
Protocol: as §2

[8] = system: Salmonella typhimurium TA98 and TA100; assay: Mini-Ames reverse mutation assay with and without S9 mix; assay type: cell-based
Protocol: The objective of this Mini-Ames study was to evaluate the test article LP11, for its ability to induce reverse mutations in the genome of strains of Salmonella typhimurium TA98 and TA100 in the presence and absence of metabolic activation (S9 mixture).
The Mini-Ames assay was conducted for the test article in the presence and absence of the S9 mixture, concurrently with the negative/solvent control (DMSO) using six wells and positive controls (2 μg/well TA98 alone, 0.2 μg/well TA100 alone or 0.4 μg/well TA98+TA100 in the presence of S9) using three wells. The tested dose levels for the test article, in the presence and absence of S9 mix, were 1000, 400, 160, 64, 25, 10, 4, and 1.5 μg per well, with each dose tested in triplicate. The study was conducted using fresh cultures of the bacterial strains and fresh test article formulations.

[9] = relative to P8 of the same experiment

human glucagon receptor (GCGR), sequence (P47871 26-477): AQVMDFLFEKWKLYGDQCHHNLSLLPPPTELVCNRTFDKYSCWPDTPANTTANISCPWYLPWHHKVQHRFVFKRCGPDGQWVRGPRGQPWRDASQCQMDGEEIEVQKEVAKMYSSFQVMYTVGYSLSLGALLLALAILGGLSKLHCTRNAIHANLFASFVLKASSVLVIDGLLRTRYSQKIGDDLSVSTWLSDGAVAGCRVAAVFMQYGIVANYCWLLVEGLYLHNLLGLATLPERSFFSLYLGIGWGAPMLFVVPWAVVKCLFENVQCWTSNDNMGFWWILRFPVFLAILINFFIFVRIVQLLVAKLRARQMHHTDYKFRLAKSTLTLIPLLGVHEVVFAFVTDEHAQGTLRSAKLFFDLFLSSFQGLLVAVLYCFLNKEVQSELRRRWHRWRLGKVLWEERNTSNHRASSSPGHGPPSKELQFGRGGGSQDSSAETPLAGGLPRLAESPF

SMILES: CCc1cc(OCCCCn2cc(COCCOCCOCCOCCOCCOCCOCCOCCN)nn2)ccc1-c1ccc(C[C@H](NC(=O)[C@H](CC(=O)O)NC(=O)[C@H](CO)NC(=O)[C@@H](NC(=O)C(C)(Cc2ccccc2F)NC(=O)[C@@H](NC(=O)CNC(=O)[C@H](Cc2nn[nH]n2)NC(=O)C(C)(C)C(=O)NCCc2cnc[nH]2)[C@@H](C)O)[C@@H](C)O)C(=O)N[C@@H](CCCc2cc(C)cc(C)c2)C(N)=O)cc1 (some centres unmarked) [LP11, NH2-PEG8-triazole-P8]
- % Recovery [1]: 89.2%
- GLP2R, GIPR, or GCGR EC50 [2]: Completely inactive
- HEK293/CRE-LUC/hGLP1R S/N (human GLP1R; highest RLU / RLU of untreated wells): 74.5
- HEK293/CRE-LUC/hGLP1R Relative Potency (% P8 EC50) (human GLP1R; [9]): 33.1%
- HEK293/CRE-LUC/hGLP1R Relative Signal:Noise (% P8) (human GLP1R; [9]): 113.3%
- plasma stability T½ [3]: >140 h
- CLint(liver) [4]: <8.6 mL/min/kg
- T1/2 [4]: >2.42 h
- EC50 (HEK293/CRE-Luc cells): > 200 nM
- HEK293/CRE-LUC S/N (HEK293/CRE-Luc cells): 1.3
- plasma stability T½ [5]: >49.4 h
- GLP2R, GIPR, or GCGR EC50 [6]: Completely inactive
- GLP2R, GIPR, or GCGR EC50 [7]: Completely inactive
- cytotoxicity in tester strains ([8]; 1.5-1000 μg per well, with or without S9 mix): no obvious cytotoxicity
- mutagenicity ([8]; Mini-Ames conclusion): negative for mutagenicity
- Ames (TA98 and TA100) in the presence and absence of S9 ([8]; TA98 and TA100, with and without S9): Negative for
- increase in the mean number of revertant colonies relative to negative/solvent control ([8]; TA98 or TA100, any dose level, presence or absence of S9 mix): ≤ 2.0 fold
